Reference: ChEMBL document CHEMBL1142296, “BACE1 inhibitors: optimization by replacing the P1' residue with non-acidic moiety” (Bioorg Med Chem Lett, 2008)

Experiments:
Beta-secretase 1 [1] = biological target: T1, Beta-secretase 1 (Homo sapiens, UniProt P56817); experiment: Inhibition of human recombinant BACE1 at 0.2 uM
Beta-secretase 1 [2] = biological target: T1, Beta-secretase 1; experiment: Inhibition of human recombinant BACE1 at 2 uM
Beta-secretase 1 [3] = biological target: T1, Beta-secretase 1; experiment: Inhibition of human recombinant BACE1

T1 sequence (P56817 whole entry): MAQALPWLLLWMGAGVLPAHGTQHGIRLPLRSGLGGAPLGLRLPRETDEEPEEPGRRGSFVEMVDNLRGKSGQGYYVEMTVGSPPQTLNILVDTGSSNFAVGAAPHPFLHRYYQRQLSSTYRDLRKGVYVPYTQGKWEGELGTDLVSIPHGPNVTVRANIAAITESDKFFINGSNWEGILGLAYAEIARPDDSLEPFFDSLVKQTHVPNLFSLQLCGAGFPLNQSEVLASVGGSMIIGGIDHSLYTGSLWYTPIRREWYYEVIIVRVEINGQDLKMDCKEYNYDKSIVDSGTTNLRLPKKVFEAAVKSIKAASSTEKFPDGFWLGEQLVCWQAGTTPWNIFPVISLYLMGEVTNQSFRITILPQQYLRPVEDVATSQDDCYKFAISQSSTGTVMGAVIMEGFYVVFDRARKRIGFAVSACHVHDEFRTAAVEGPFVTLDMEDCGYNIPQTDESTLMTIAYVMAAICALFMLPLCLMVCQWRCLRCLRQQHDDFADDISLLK

inhibition (Beta-secretase 1 [1]) [%]	inhibition (Beta-secretase 1 [2]) [%]	SMILES	IC50 (Beta-secretase 1 [3]) [nM]
–	54	CC(C)C[C@H](NC(=O)[C@@H](NC(=O)[C@@H](N)CCC(=O)O)C(C)C)C(=O)N[C@@H](Cc1ccccc1)[C@@H](O)C(=O)Nc1cccc(O)c1	–
–	60	CC(C)C[C@H](NC(=O)[C@@H](NC(=O)[C@@H](N)CCC(=O)O)C(C)C)C(=O)N[C@@H](Cc1ccccc1)[C@@H](O)C(=O)Nc1ccccc1O	–
–	53	CC(C)C[C@H](NC(=O)[C@@H](NC(=O)[C@@H](N)CCC(=O)O)C(C)C)C(=O)N[C@@H](Cc1ccccc1)[C@@H](O)C(=O)Nc1ccccc1	–
–	86	CC(C)C[C@H](NC(=O)[C@@H](NC(=O)[C@@H](N)CCC(=O)O)C(C)C)C(=O)N[C@@H](Cc1ccccc1)[C@@H](O)C(=O)Nc1cccc(C(=O)NS(=O)(=O)C(F)(F)F)c1	–
–	51	CC(C)C[C@H](NC(=O)[C@@H](NC(=O)[C@@H](N)CCC(=O)O)C(C)C)C(=O)N[C@@H](Cc1ccccc1)[C@@H](O)C(=O)Nc1cccc(C(=O)C(F)(F)F)c1	–
–	74	CC(C)C[C@H](NC(=O)[C@@H](NC(=O)[C@@H](N)CCC(=O)O)C(C)C)C(=O)N[C@@H](Cc1ccccc1)[C@@H](O)C(=O)Nc1cc(C(F)(F)F)cc(C(F)(F)F)c1	–
–	78	CC(C)C[C@H](NC(=O)[C@@H](NC(=O)[C@@H](N)CCC(=O)O)C(C)C)C(=O)N[C@@H](Cc1ccccc1)[C@@H](O)C(=O)Nc1cc(Cl)cc(Cl)c1	–
70	96	CC(C)C[C@H](NC(=O)[C@@H](NC(=O)[C@@H](N)CNC(=O)c1nn[nH]n1)C(C)C)C(=O)N[C@@H](Cc1ccccc1)[C@@H](O)C(=O)Nc1cccc([N+](=O)[O-])c1	–
–	80	CC(C)C[C@H](NC(=O)[C@@H](NC(=O)[C@@H](N)CCC(=O)O)C(C)C)C(=O)N[C@@H](Cc1ccccc1)[C@@H](O)C(=O)Nc1cc(Cl)c(O)c(Cl)c1	–
–	60	CC(C)C[C@H](NC(=O)[C@@H](NC(=O)[C@@H](N)CCC(=O)O)C(C)C)C(=O)N[C@@H](Cc1ccccc1)[C@@H](O)C(=O)Nc1cc([N+](=O)[O-])cc([N+](=O)[O-])c1	–
–	71	CC(C)C[C@H](NC(=O)[C@@H](NC(=O)[C@@H](N)CCC(=O)O)C(C)C)C(=O)N[C@@H](Cc1ccccc1)[C@@H](O)C(=O)Nc1cccc([N+](=O)[O-])c1	–
–	94	Cc1nc(NC(=O)[C@H](O)[C@H](Cc2ccccc2)NC(=O)[C@H](CC(C)C)NC(=O)[C@@H](NC(=O)[C@@H](N)CCC(=O)O)C(C)C)sc1C(=O)O	–

Continued, compound first:

SMILES	inhibition (Beta-secretase 1 [1]) [%]	inhibition (Beta-secretase 1 [2]) [%]	IC50 (Beta-secretase 1 [3]) [nM]
CC(C)C[C@H](NC(=O)[C@@H](NC(=O)[C@@H](N)CNC(=O)c1nn[nH]n1)C(C)C)C(=O)N[C@@H](Cc1ccccc1)[C@@H](O)C(=O)Nc1cc(Br)cc(C(F)(F)F)c1	57	92	–
CC(C)C[C@H](NC(=O)[C@@H](NC(=O)[C@@H](N)CNC(=O)c1nn[nH]n1)C(C)C)C(=O)N[C@@H](Cc1ccccc1)[C@@H](O)C(=O)NS(=O)(=O)C(F)(F)F	81	98	–
CC(C)C[C@H](NC(=O)[C@@H](NC(=O)[C@@H](N)CNC(=O)c1nn[nH]n1)C(C)C)C(=O)N[C@@H](Cc1ccccc1)[C@@H](O)C(=O)Nc1cc(Cl)cc(Cl)c1	84	99	–
CC(C)C[C@H](NC(=O)[C@@H](NC(=O)[C@@H](N)CNC(=O)c1nnn[nH]1)C(C)C)C(=O)N[C@@H](Cc1ccccc1)[C@@H](O)C(=O)NS(=O)(=O)C(F)(F)F	–	–	29.9
CC(C)C[C@H](NC(=O)[C@@H](NC(=O)[C@@H](N)CNC(=O)c1nn[nH]n1)C(C)C)C(=O)N[C@@H](Cc1ccccc1)[C@@H](O)C(=O)Nc1cccc(OC(F)(F)F)c1	72	93	–
CC(C)C[C@H](NC(=O)[C@@H](NC(=O)[C@@H](N)CNC(=O)c1nn[nH]n1)C(C)C)C(=O)N[C@@H](Cc1ccccc1)[C@@H](O)C(=O)Nc1cc(C(F)(F)F)cc(C(F)(F)F)c1	68	95	–
CC(C)C[C@H](NC(=O)[C@@H](NC(=O)[C@@H](N)CNC(=O)c1nn[nH]n1)C(C)C)C(=O)N[C@@H](Cc1ccccc1)[C@@H](O)C(=O)Nc1cc([N+](=O)[O-])cc([N+](=O)[O-])c1	75	96	–
CC(C)C[C@H](NC(=O)[C@@H](NC(=O)[C@@H](N)CNC(=O)c1nnn[nH]1)C(C)C)C(=O)N[C@@H](Cc1ccccc1)[C@@H](O)C(=O)Nc1cc(Cl)cc(Cl)c1	–	–	14
CCOC(=O)c1sc(NC(=O)[C@H](O)[C@H](Cc2ccccc2)NC(=O)[C@H](CC(C)C)NC(=O)[C@@H](NC(=O)[C@@H](N)CCC(=O)O)C(C)C)nc1C	–	66	–
